Reference: publication PMC7448123, “Ru(II) Complexes Bearing O, O-Chelated Ligands Induced Apoptosis in A549 Cells through the Mitochondrial Apoptotic Pathway” (Bioinorganic Chemistry and Applications, 2020)

Tests used:
[1] = test system: BEAS-2B (immortalized human bronchial epithelial cells); assay: MTT cytotoxicity assay, normal BEAS-2B; type: cell-based; settings: 48 h
Method: (§1) All cell lines were cultured in Roswell Park Memorial Institute 1640 culture media supplemented with 10% fetal bovine serum and incubated at 37°C in a 5% CO2 incubator. The IC50 values in Table 1 were measured by MTT assay according to our previous report [16].
(§2) The cell viability was obtained by the MTT assay.

[2] = test system: HeLa (human cervical cancer); assay: MTT cytotoxicity assay, HeLa; type: cell-based; settings: 48 h
Method: as §1, §2

[3] = test system: A549 (human lung carcinoma); assay: MTT cytotoxicity assay, A549; type: cell-based; settings: 48 h; for IC50: MTT
Method: as §1, §2

[4] = test system: MCF-7 (breast cancer); assay: MTT cytotoxicity assay, MCF-7; type: cell-based, human; settings: 48 h
Method: as §1, §2

[5] = test system: HepG2 (human hepatocellular carcinoma); assay: MTT cytotoxicity assay, HepG2; type: cell-based; settings: 48 h
Method: as §1, §2

N.N.[Cl][Pt][Cl] [Cisplatin]
IC50 [1]: 21.4 ± 1.5 µM | IC50 [2]: 18.3 ± 1.2 µM | SI (selectivity index) = IC50 (BEAS-2B)/IC50 (A549) [3]: 0.8 | IC50 [3]: 27.2 ± 1.4 µM | IC50 [4]: 16.2 ± 2 µM | IC50 [5]: 30.2 ± 2 µM

[Cl-].[Cl-].[Ru+2].c1ccc(-c2ccnc3c2ccc2c(-c4ccccc4)ccnc23)cc1.c1ccc(-c2ccnc3c2ccc2c(-c4ccccc4)ccnc23)cc1 [Ru(dip)2Cl2, cis-[Ru(dip)2Cl2]]
IC50 [2]: 116 ± 6.8 µM | IC50 [3]: 138 ± 6.7 µM | IC50 [4]: 135 ± 7.9 µM | IC50 [5]: 108 ± 5.4 µM

Cc1ccc2ccc3ccc(C)nc3c2n1.Cc1ccc2ccc3ccc(C)nc3c2n1.[Cl-].[Cl-].[Ru+2] [Ru(dmp)2Cl2, cis-[Ru(dmp)2Cl2]]
IC50 [2]: > 200 µM | IC50 [3]: > 200 µM | IC50 [4]: > 200 µM | IC50 [5]: 169 ± 6.2 µM
